Experimental data from patent publication US20240270762A1, “PENICILLIN-BINDING PROTEIN INHIBITORS” (priority 2021, published 2024).
In brackets after ≈: the same amount, converted by molar mass.

Key:
[1] = target: T1, PBP3 from Pseudomonas aeruginosa (PAO1) (Pseudomonas aeruginosa, UniProt G3XD46); assay: Bocillin-FL fluorescence polarization competition binding, P. aeruginosa PBP3; conditions: Binding affinity to P. aeruginosa PBP3; fluorescence polarization competition binding assay using Bocillin-FL; read-out: P. aeruginosa PBP3 Potency
T1 construct: made in house
T1 sequence (G3XD46 whole entry): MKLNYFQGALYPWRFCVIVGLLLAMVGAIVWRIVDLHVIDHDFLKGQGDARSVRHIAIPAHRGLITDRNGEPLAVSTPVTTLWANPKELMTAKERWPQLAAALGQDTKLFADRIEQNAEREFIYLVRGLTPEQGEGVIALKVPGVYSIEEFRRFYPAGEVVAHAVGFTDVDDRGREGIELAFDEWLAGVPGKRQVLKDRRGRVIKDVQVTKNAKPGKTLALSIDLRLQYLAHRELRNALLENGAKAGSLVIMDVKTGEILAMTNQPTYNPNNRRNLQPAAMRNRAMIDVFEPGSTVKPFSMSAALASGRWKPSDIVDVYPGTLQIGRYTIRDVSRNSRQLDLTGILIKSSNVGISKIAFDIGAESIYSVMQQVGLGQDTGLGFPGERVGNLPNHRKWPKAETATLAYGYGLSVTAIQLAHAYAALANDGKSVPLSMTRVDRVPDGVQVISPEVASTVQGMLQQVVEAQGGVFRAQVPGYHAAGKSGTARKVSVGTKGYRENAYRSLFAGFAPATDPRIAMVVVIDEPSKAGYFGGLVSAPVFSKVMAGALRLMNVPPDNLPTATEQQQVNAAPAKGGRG
Procedure, shortened: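 Purified PBPs pre-incubated with inhibitor (E. coli PBP3 1.5 μM, 30 min; P. aeruginosa PBP3 0.75 μM, A. baumannii PBP1a 1 μM and PBP3 0.2 μM, 15 min), then Bocillin-FL 0.1 μM (0.05 μM for PBP1a) added; FP read up to 60 min. EC50 = concentration halving bound Bocillin-FL.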

[2] = tested on: P. aeruginosa ATCC 27853; assay: microbe, parasite or virus in culture; format: cell-based; conditions: Pseudomonas aeruginosa, ATCC27853, read-out: Minimum inhibitory concentration, P. aeruginosa ATCC 27853
[3] = tested on: P. aeruginosa CDC-0054; assay: microbe, parasite or virus in culture; format: cell-based; conditions: Pseudomonas aeruginosa, CDC0054, read-out: Minimum inhibitory concentration, P. aeruginosa CDC-0054
[4] = tested on: P. aeruginosa CDC-0090; assay: microbe, parasite or virus in culture; format: cell-based; conditions: Pseudomonas aeruginosa, CDC0090, read-out: Minimum inhibitory concentration, P. aeruginosa CDC-0090
[5] = tested on: A. baumannii CDC-0036; assay: microbe, parasite or virus in culture; format: cell-based; conditions: Acinetobacter baumannii, CDC0036, read-out: MIC, A. baumannii CDC-0036
[6] = tested on: A. baumannii CDC-0083; assay: microbe, parasite or virus in culture; format: cell-based; conditions: Acinetobacter baumannii, CDC0083, read-out: MIC, A. baumannii CDC-0083
[7] = tested on: B. humptydooensis ATCC BAA-2767; assay: microbe, parasite or virus in culture; format: cell-based; conditions: Burkholderia humptydooensis, ATCCBAA2767, read-out: Minimum inhibitory concentration (MIC), B. humptydooensis ATCC BAA-2767
[8] = tested on: P. aeruginosa CDC-0110; assay: microbe, parasite or virus in culture; format: cell-based; conditions: Pseudomonas aeruginosa, CDC0110, read-out: Minimum inhibitory concentration, P. aeruginosa CDC-0110
[9] = tested on: N. gonorrhoeae ATCC 49226; assay: Liquid broth MIC in Fastidious broth; conditions: Neisseria gonorrhoeae, ATCC49226, read-out: Minimum Inhibitory Concentration, ATCC 49226
[10] = tested on: N. gonorrhoeae FA1090; assay: Liquid broth MIC in Fastidious broth; conditions: Neisseria gonorrhoeae, FA1090, read-out: Minimum Inhibitory Concentration, FA 1090
[11] = tested on: N. gonorrhoeae WHO G; assay: Liquid broth MIC in Fastidious broth; conditions: Neisseria gonorrhoeae, read-out: Minimum Inhibitory Concentration, WHO G
Description: Additional antibacterial testing of the series was performed in 8 reference strains of N. gonorrhoeae (ATCC 49226, FA1090, MS 11, WHO G, WHO L, WHO M, WHO K, WHO X, WHO Z, WHO Q, CDC-0197). ATCC 49226, FA1090, MS11, WHO G, WHO L, and WHO M produce wild type or wild-type like PBP2. WHO K, WHO X, WHO Z, WHO Q, and CDC-0197 produce mosaic PBP2. Liquid broth-based assays were used for antibacterial testing of PBP inhibitors in Neisseria gonorrhoeae. Briefly, cryo-preserved bacterial cultures of clinical strains were streaked for isolation on Chocolate Agar (72 g/L (2×) GC Agar Base (BD #228950) and 2% (2×) Hemoglobin was autoclaved at 121° C. for 20 minutes to sterilize. Once cooled to ˜50° C. the 2×GC Agar Base and 2× Hemoglobin solutions are combined and 1% IsoVitaleX Enrichment (BD #211876) was added to the solution). Strains were incubated at 36° C. and 5% CO2 to allow growth of colonies, 24 hours before inoculum preparation. 2-fold serial dilutions of test compounds were conducted in a 96 well plate with a final volume of 75 μL per well at 2-fold the final desired concentration in Fastidious broth (Remel #R07664). For preparation of assay inoculum, a direct suspension was prepared by aseptically swabbing 10-15 colonies from agar plates into culture tubes containing 2 mL of fresh sterile saline. After the dilution plates were set up, direct suspensions were then diluted in a cuvette containing sterile saline and the optical density was measured at 600 nm. Inocula were diluted such that 75 μL of this culture in Fastidious broth results in a starting bacterial concentration of 5×10^5 CFU/mL when added to the dilution plates. The plates were incubated for ˜24 hours at 36° C. and 5% CO2.

[12] = tested on: N. gonorrhoeae WHO M; assay: Liquid broth MIC in Fastidious broth; conditions: Neisseria gonorrhoeae, read-out: Minimum Inhibitory Concentration, WHO M
[13] = tested on: N. gonorrhoeae WHO X; assay: Liquid broth MIC in Fastidious broth; conditions: Neisseria gonorrhoeae, read-out: Minimum Inhibitory Concentration, WHO X

| Structure (SMILES) | IC50 [1] [µM] | MIC [2] [µg/mL] | MIC [3] [µg/mL] | MIC [4] [µg/mL] | MIC [5] [µg/mL] | MIC [6] [µg/mL] | MIC [7] [µg/mL] | MIC [8] [µg/mL] | MIC [9] [µg/mL] | MIC [10] [µg/mL] | MIC [11] [µg/mL] | MIC [12] [µg/mL] | MIC [13] [µg/mL] |
| --- | --- | --- | --- | --- | --- | --- | --- | --- | --- | --- | --- | --- | --- |
| O=C(NCCCN1CCN(C(=O)N[C@@H](C(=O)N[C@H]2Cc3ccc(F)c(C(=O)O)c3OB2O)c2cc(F)c(O)c(O)c2Cl)C1=O)Nc1cccc(O)c1 [Example 258, (R)-3-((R)-2-(2-chloro-5-fluoro-3,4-dihydroxyphenyl)-2-(3-(3-(3-(3-hydroxyphenyl)ureido)propyl)-2-oxoimidazolidine-1-carboxamido)acetamido)-7-fluoro-2-hydroxy-3,4-dihydro-2H-benzo[e][1,2]oxaborinine-8-carboxylic acid] | < 10 | 2 to 4 (≈ 2.68 to 5.36 µM) | < 1 | < 1 | < 1 | < 1 | < 1 | < 1 | 4 to 8 (≈ 5.36 to 10.7 µM) | 1 to 2 (≈ 1.34 to 2.68 µM) | 4 to 8 (≈ 5.36 to 10.7 µM) | 4 to 8 (≈ 5.36 to 10.7 µM) | > 64 |
| O=C(NCCCN1CCN(C(=O)NC(C(=O)N[C@H]2Cc3ccc(F)c(C(=O)O)c3OB2O)c2cc(F)c(O)c(O)c2Cl)C1=O)Nc1cccnc1 (stereo partly drawn) [Example 259, (3R)-3-(2-(2-chloro-5-fluoro-3,4-dihydroxyphenyl)-2-(2-oxo-3-(3-(3-(pyridin-3-yl)ureido)propyl)imidazolidine-1-carboxamido)acetamido)-7-fluoro-2-hydroxy-3,4-dihydro-2H-benzo[e][1,2]oxaborinine-8-carboxylic acid] | < 10 | < 1 | 2 to 4 (≈ 2.73 to 5.47 µM) | < 1 | < 1 | < 1 | < 1 | < 1 | 16 to 32 (≈ 21.9 to 43.7 µM) | 1 to 2 (≈ 1.37 to 2.73 µM) | 16 to 32 (≈ 21.9 to 43.7 µM) | 4 to 8 (≈ 5.47 to 10.9 µM) | > 64 |
| O=C(NCCS(=O)(=O)N1CCN(C(=O)NC(C(=O)N[C@H]2Cc3ccc(F)c(C(=O)O)c3OB2O)c2cc(F)c(O)c(O)c2Cl)C1=O)c1cccc(O)c1 (stereo partly drawn) [Example 261, (3R)-3-(2-(2-chloro-5-fluoro-3,4-dihydroxyphenyl)-2-(3-((2-(3-hydroxybenzamido)ethyl)sulfonyl)-2-oxoimidazolidine-1-carboxamido)acetamido)-7-fluoro-2-hydroxy-3,4-dihydro-2H-benzo[e][1,2]oxaborinine-8-carboxylic acid] | < 10 | 2 to 4 (≈ 2.56 to 5.12 µM) | 2 to 4 (≈ 2.56 to 5.12 µM) | 2 to 4 (≈ 2.56 to 5.12 µM) | 2 to 4 (≈ 2.56 to 5.12 µM) | < 1 | 2 to 4 (≈ 2.56 to 5.12 µM) | 2 to 4 (≈ 2.56 to 5.12 µM) | 16 to 32 (≈ 20.5 to 40.9 µM) | 4 to 8 (≈ 5.12 to 10.2 µM) | 16 to 32 (≈ 20.5 to 40.9 µM) | 4 to 8 (≈ 5.12 to 10.2 µM) | > 64 |
| O=C(NCCS(=O)(=O)N1CCN(C(=O)NC(C(=O)N[C@H]2Cc3ccc(F)c(C(=O)O)c3OB2O)c2cc(F)c(O)c(O)c2Cl)C1=O)c1cccnc1 (stereo partly drawn) [Example 262, (3R)-3-(2-(2-chloro-5-fluoro-3,4-dihydroxyphenyl)-2-(3-((2-(nicotinamido)ethyl)sulfonyl)-2-oxoimidazolidine-1-carboxamido)acetamido)-7-fluoro-2-hydroxy-3,4-dihydro-2H-benzo[e][1,2]oxaborinine-8-carboxylic acid] | < 10 | < 1 | 2 to 4 (≈ 2.61 to 5.22 µM) | < 1 | < 1 | < 1 | < 1 | < 1 | 16 to 32 (≈ 20.9 to 41.7 µM) | 4 to 8 (≈ 5.22 to 10.4 µM) | 16 to 32 (≈ 20.9 to 41.7 µM) | 16 to 32 (≈ 20.9 to 41.7 µM) | > 64 |
| O=C(NCCS(=O)(=O)N1CCN(C(=O)N[C@H](C(=O)N[C@H]2Cc3ccc(F)c(C(=O)O)c3OB2O)c2cc(F)c(O)c(O)c2Cl)C1=O)c1nccs1 [Example 263, (R)-3-((S)-2-(2-chloro-5-fluoro-3,4-dihydroxyphenyl)-2-(2-oxo-3-((2-(thiazole-2-carboxamido)ethyl)sulfonyl)imidazolidine-1-carboxamido)acetamido)-7-fluoro-2-hydroxy-3,4-dihydro-2H-benzo[e][1,2]oxaborinine-8-carboxylic acid] | 10 to 50 | 32 to 64 (≈ 41.4 to 82.8 µM) | 8 to 16 (≈ 10.4 to 20.7 µM) | 32 to 64 (≈ 41.4 to 82.8 µM) | 32 to 64 (≈ 41.4 to 82.8 µM) | 2 to 4 (≈ 2.59 to 5.18 µM) | 8 to 16 (≈ 10.4 to 20.7 µM) | > 128 | > 64 | > 64 | > 64 | > 64 | > 64 |
